# Test results as given in ChEMBL document CHEMBL1649080, “Identification of a potent Janus kinase 3 inhibitor with high selectivity within the Janus kinase family” (J Med Chem, 2011).
# Key:
# [1] = target: T1, Tyrosine-protein kinase JAK3 (Homo sapiens, UniProt P52333); assay type: cell-based
# T1 sequence (P52333 whole entry): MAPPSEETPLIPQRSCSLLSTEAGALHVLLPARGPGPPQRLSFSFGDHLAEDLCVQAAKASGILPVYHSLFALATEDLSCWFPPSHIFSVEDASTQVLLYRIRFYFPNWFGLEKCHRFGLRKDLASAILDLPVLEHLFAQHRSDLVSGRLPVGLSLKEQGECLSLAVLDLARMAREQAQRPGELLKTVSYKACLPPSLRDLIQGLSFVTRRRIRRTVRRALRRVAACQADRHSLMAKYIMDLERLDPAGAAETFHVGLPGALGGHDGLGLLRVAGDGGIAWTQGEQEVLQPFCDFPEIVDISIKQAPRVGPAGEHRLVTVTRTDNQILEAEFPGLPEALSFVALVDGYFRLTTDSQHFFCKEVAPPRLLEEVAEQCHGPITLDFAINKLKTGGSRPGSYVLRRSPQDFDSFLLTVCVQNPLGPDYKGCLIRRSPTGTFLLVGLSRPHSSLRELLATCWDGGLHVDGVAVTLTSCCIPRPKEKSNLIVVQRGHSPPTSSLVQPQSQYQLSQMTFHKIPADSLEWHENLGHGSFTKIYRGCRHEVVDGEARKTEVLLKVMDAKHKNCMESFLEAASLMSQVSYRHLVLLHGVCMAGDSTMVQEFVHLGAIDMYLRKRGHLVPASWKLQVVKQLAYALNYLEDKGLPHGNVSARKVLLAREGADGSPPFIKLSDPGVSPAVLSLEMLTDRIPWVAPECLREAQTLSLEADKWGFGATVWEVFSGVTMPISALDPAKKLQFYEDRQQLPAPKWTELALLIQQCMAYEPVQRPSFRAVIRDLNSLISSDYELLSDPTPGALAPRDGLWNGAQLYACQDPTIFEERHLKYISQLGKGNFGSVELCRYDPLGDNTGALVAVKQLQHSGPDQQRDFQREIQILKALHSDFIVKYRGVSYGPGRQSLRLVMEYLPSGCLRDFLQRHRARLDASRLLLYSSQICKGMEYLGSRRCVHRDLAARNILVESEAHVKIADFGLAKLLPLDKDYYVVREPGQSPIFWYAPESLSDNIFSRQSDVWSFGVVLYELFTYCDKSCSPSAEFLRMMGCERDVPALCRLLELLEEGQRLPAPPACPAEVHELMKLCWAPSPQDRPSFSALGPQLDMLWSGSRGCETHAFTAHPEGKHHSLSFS
# [2] = target: Tyrosine-protein kinase JAK1 (Homo sapiens, UniProt P23458)
# Sequence of Tyrosine-protein kinase JAK1 (P23458 whole entry): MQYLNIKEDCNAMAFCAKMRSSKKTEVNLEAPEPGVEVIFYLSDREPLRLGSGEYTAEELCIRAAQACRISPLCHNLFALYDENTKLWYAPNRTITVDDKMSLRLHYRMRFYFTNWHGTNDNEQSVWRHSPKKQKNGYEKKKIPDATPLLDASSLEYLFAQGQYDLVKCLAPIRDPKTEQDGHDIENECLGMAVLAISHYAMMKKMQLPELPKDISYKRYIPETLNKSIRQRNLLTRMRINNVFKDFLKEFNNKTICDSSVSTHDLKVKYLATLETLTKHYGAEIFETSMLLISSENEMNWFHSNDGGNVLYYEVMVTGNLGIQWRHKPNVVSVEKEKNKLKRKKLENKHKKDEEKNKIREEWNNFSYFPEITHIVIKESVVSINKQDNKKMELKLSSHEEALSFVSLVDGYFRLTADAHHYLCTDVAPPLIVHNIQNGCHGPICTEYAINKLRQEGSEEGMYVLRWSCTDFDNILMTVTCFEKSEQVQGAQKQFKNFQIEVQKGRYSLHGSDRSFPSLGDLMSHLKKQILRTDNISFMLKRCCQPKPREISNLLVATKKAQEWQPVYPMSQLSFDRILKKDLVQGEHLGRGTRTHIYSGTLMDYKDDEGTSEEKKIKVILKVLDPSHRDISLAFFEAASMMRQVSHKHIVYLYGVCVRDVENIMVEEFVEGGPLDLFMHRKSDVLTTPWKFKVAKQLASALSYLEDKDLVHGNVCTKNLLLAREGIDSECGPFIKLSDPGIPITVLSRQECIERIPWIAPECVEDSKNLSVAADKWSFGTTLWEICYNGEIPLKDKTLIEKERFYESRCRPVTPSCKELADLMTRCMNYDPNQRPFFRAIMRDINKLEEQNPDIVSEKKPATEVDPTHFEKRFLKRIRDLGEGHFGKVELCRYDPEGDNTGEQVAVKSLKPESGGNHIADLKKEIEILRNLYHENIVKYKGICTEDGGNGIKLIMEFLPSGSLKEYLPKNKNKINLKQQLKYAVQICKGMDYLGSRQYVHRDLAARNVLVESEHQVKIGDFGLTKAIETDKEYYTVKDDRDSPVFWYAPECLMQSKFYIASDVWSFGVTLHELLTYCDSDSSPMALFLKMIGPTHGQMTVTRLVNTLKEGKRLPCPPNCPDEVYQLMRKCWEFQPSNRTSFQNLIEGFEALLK
# [3] = target: Non-receptor tyrosine-protein kinase TYK2 (Homo sapiens, UniProt P29597)
# Sequence of Non-receptor tyrosine-protein kinase TYK2 (P29597 whole entry): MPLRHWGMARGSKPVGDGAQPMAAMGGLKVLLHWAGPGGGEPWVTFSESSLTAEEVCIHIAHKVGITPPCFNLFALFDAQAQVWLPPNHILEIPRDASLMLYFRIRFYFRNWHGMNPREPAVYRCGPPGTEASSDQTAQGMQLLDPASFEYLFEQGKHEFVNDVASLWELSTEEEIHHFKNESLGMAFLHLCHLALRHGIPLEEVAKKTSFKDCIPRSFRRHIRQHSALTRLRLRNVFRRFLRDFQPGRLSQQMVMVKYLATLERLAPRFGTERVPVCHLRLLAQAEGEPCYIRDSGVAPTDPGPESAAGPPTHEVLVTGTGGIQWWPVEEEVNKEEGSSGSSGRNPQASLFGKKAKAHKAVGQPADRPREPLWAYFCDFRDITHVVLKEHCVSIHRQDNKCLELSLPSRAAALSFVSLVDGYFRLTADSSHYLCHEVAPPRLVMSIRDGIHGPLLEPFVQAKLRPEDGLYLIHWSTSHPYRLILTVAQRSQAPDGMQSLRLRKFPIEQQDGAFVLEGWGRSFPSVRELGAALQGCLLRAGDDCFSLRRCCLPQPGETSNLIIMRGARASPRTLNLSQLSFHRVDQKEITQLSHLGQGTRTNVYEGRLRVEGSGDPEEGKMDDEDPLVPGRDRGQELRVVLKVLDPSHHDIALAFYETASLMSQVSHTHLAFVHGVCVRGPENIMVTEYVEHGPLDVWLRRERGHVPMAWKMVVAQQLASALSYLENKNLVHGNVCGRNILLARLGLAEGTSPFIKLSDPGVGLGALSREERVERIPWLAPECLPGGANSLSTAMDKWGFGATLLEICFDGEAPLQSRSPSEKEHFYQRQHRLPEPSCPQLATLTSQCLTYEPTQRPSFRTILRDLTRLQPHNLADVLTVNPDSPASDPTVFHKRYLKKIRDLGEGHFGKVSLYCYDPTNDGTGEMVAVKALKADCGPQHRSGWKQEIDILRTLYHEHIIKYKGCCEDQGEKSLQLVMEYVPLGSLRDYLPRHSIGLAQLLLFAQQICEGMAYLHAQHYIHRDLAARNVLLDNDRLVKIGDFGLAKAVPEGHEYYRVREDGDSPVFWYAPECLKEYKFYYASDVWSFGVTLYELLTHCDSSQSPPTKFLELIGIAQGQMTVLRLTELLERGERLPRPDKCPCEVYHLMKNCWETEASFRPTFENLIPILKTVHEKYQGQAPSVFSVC
# [4] = target: Tyrosine-protein kinase JAK2 (Homo sapiens, UniProt O60674)
# Sequence of Tyrosine-protein kinase JAK2 (O60674 whole entry): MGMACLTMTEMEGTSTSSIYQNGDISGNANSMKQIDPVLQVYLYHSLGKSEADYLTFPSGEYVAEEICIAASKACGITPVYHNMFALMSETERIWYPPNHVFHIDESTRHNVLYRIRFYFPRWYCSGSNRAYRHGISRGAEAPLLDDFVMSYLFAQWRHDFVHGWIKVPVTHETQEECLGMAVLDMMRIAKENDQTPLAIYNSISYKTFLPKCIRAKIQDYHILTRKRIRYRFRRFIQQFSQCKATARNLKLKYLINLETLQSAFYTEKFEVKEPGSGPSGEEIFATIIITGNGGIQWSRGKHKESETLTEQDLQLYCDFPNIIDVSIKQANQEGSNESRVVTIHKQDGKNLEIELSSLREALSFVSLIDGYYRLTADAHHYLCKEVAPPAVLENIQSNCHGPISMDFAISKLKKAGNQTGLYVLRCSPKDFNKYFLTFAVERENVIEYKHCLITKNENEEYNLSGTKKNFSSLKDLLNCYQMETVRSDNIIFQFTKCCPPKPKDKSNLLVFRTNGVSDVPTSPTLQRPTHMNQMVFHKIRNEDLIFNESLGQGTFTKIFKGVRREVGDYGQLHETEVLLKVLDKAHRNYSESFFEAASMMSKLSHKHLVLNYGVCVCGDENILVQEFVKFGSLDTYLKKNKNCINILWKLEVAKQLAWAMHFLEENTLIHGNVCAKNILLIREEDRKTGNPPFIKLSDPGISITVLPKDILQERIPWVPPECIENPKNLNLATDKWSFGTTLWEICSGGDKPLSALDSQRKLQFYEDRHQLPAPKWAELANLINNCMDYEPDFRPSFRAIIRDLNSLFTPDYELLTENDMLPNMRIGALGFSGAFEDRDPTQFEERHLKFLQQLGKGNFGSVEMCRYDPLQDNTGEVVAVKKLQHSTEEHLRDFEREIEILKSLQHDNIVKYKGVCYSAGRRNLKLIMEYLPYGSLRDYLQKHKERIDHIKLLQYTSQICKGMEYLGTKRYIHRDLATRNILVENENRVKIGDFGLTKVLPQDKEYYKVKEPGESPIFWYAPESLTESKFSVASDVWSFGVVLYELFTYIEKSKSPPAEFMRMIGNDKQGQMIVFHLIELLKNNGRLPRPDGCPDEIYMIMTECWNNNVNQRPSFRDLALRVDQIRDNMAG
# Jurkat [5] = settings: human, 0.33 µM
# Description: Drug uptake in human Jurkat cells assessed as whole cell extract measured per 50000 cells at 0.33 uM in growth medium by LC-MS/MS analysis
# Jurkat [6] = settings: human, 3.3 µM
# Description: Drug uptake in human Jurkat cells assessed as whole cell extract measured per 50000 cells at 3.3 uM in growth medium by LC-MS/MS analysis
# CTLL [7] = settings: mouse, 3.3 µM
# Description: Drug uptake in mouse CTLL cells assessed as whole cell extract measured per 50000 cells at 3.3 uM in growth medium by LC-MS/MS analysis
# Jurkat [8] = assay: cells; settings: Homo sapiens
# Description: Inhibition of antiTCR/antiCD28-stimulated IL2 production in human Jurkat cells by measuring bioluminescence
# in vitro = settings: human, Caco-2
# [9] = target: Glycogen synthase kinase-3 beta (Homo sapiens, UniProt P49841); assay: Inhibition of GSK3-beta
# Sequence of Glycogen synthase kinase-3 beta (P49841 whole entry): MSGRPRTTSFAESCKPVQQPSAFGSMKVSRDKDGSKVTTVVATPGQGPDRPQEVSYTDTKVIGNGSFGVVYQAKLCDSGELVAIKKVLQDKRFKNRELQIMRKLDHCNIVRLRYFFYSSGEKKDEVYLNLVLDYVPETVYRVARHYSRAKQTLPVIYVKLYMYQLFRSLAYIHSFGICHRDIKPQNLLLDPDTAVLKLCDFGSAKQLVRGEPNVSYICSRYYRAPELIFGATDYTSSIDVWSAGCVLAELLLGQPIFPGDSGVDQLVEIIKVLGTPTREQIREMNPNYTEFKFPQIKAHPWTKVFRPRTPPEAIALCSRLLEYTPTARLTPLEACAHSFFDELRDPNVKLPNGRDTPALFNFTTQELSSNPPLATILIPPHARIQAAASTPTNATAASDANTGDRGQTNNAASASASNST
# [10] = target: T2, Tyrosine-protein kinase JAK3 (Mus musculus, UniProt Q62137)
# T2 sequence (Q62137 whole entry): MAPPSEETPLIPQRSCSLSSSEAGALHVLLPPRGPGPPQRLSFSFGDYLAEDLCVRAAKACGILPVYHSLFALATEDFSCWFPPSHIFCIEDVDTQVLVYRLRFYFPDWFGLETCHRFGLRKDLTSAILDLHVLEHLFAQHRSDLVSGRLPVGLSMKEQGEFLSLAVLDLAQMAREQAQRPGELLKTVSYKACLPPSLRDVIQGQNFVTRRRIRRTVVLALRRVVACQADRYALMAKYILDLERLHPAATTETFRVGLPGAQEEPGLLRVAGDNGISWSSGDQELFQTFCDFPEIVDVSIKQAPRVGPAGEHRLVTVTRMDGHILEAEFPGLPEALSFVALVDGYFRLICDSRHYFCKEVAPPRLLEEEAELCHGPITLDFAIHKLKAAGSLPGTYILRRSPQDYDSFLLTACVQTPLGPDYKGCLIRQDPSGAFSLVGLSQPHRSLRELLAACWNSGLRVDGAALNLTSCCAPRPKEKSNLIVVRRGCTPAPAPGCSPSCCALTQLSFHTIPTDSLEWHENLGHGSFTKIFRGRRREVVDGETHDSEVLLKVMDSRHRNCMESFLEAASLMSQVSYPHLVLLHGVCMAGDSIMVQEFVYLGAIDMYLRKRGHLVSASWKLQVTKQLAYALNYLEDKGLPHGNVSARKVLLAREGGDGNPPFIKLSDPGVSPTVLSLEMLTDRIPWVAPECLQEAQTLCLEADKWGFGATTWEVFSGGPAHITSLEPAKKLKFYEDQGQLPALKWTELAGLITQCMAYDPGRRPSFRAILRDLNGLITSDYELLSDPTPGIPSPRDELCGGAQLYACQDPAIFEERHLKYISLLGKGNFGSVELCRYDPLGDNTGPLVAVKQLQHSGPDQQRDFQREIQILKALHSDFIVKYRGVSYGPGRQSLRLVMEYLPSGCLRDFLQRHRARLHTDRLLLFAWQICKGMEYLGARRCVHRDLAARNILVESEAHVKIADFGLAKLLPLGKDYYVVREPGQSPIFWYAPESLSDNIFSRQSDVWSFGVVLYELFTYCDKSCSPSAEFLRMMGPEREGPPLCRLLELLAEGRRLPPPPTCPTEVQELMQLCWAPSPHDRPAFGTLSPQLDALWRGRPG
# Description: Inhibition of Jak3-mediated IL2-induced Stat5 phosphorylation in mouse CTLL cells by cell-based assay
# CTLL [11] = settings: mouse, 10 µM
# Description: Drug uptake in mouse CTLL cells assessed as whole cell extract measured per 50000 cells at 10 uM in growth medium by LC-MS/MS analysis
# CTLL [12] = settings: mouse, 1 µM
# Description: Drug uptake in mouse CTLL cells assessed as whole cell extract measured per 50000 cells at 1 uM in growth medium by LC-MS/MS analysis
# [13] = target: Protein kinase C alpha type (Homo sapiens, UniProt P17252); assay: Inhibition of PKCalpha
# [14] = target: Protein kinase C theta type (Homo sapiens, UniProt Q04759); assay: Inhibition of PKCtheta
# Sequence of Protein kinase C theta type (Q04759 whole entry): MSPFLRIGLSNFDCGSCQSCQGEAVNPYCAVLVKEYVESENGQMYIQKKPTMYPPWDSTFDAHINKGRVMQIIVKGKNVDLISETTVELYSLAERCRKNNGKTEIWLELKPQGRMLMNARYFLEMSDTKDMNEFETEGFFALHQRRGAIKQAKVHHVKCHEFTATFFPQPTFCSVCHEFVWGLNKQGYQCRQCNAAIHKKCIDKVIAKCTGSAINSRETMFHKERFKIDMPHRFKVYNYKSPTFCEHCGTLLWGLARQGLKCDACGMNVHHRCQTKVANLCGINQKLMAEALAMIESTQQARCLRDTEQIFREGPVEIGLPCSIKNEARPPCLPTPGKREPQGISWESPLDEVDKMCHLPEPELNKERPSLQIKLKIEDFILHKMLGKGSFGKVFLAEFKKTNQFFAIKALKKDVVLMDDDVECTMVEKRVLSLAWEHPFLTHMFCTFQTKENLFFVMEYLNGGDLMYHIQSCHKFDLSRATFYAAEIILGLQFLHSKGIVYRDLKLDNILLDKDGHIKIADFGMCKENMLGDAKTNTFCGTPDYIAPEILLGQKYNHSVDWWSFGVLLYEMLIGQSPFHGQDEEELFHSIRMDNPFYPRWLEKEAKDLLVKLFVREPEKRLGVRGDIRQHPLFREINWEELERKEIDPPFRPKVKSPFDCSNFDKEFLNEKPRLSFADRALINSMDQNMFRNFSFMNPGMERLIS
# CTLL [15] = settings: mouse, 0.33 µM
# Description: Drug uptake in mouse CTLL cells assessed as whole cell extract measured per 50000 cells at 0.33 uM in growth medium by LC-MS/MS analysis
# Jurkat [16] = settings: human, 10 µM
# Description: Drug uptake in human Jurkat cells assessed as whole cell extract measured per 50000 cells at 10 uM in growth medium by LC-MS/MS analysis
# Jurkat [17] = settings: human, 1 µM
# Description: Drug uptake in human Jurkat cells assessed as whole cell extract measured per 50000 cells at 1 uM in growth medium by LC-MS/MS analysis
IC50 [1] [nM],IC50 [2] [nM],IC50 [3] [nM],IC50 [4] [nM],Compound,other results
460,6500,> 10000,> 10000,O=C1NC(=O)C(c2c[nH]c3ccccc23)=C1c1cc(N2CCOCC2)ccc1C(F)(F)F,–
> 10000,> 10000,> 10000,> 10000,O=C1NC(=O)C(c2c[nH]c3ccccc23)=C1c1cc(F)ccc1C(F)(F)F,–
36,754,5040,1440,O=CN1CCN(c2ccc(C(F)(F)F)c(C3=C(c4c[nH]c5ccccc45)C(=O)NC3=O)c2)CC1,–
–,–,–,–,CC(C)(O)C(=O)N1CCN(c2ccc(C(F)(F)F)c(C3=C(c4c[nH]c5ccccc45)C(=O)NC3=O)c2)CC1,Drug uptake (Jurkat [5]): 2.4 pmol; Drug uptake (Jurkat [6]): 23.48 pmol; Drug uptake (CTLL [7]): 31.27 pmol; IC50 (Jurkat [8]): 689 nM; Papp A→B (in vitro): 3 ×10⁻⁶ cm/s; IC50 [9]: 3 nM; IC50 [10]: 1290 nM; Drug uptake (CTLL [11]): 64.33 pmol; Drug uptake (CTLL [12]): 10.97 pmol; IC50 [13]: 13 nM; IC50 [14]: 68 nM; Drug uptake (CTLL [15]): 3.12 pmol; Drug uptake (Jurkat [16]): 55.58 pmol; Drug uptake (Jurkat [17]): 7.88 pmol
–,253,4330,330,O=C1CCN(c2ncc(C(F)(F)F)c(C3=C(c4c[nH]c5ccccc45)C(=O)NC3=O)n2)CC1,–
133,737,> 10000,4700,O=C1NC(=O)C(c2c[nH]c3ccccc23)=C1c1cc(N2CCNCC2)ccc1C(F)(F)F,–
423,4700,> 10000,9150,CN(C)c1ccc(C(F)(F)F)c(C2=C(c3c[nH]c4ccccc34)C(=O)NC2=O)c1,–
